The text below walks through data of patent publication US20020045254A1, “Established cells” (priority 1998, published 2002).

In one series the target is T1, GLUT-1 transporter (Rattus norvegicus, UniProt P11167).
T1 construct: endogenous in cells; host or cells: TR-iBRB2, immortalized rat retinal capillary endothelial cells (tsA58 SV40 large T transgenic rat)
T1 sequence (P11167 1-492): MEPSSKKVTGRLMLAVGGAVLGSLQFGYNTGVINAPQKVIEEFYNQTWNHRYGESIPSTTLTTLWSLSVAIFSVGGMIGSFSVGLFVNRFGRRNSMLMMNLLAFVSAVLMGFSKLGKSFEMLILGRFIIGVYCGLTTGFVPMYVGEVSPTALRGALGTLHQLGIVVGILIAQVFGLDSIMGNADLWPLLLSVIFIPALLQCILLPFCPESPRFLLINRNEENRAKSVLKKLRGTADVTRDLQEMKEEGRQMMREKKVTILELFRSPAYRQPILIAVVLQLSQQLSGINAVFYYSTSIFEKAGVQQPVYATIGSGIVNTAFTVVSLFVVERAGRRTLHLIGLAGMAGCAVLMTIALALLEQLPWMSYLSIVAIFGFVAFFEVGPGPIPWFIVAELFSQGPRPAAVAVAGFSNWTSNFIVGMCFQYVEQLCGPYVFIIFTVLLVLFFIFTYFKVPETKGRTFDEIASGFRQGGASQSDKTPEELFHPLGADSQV
Nature of the series: 3-OMG uptake by TR-iBRB2 cells (glucose transport capability). The class given is in vitro ADME. As to the method:
The 3-OMG uptake was determined according to the following procedure. After removing medium by aspiration, 0.2 mL of an uptake buffer containing 232 kBq/mL of [^3H]3-OMG heated to 37° C. was added. […] After 10 seconds, the uptake buffer (1) was removed and the residue was washed with the uptake buffer (1) at 4° C. The same procedure was repeated except for changing the period of time before removing the uptake buffer (1) to 20 seconds, 30 seconds, or one minutes. The cells were solubilized in 1 mL of PBS containing 1% Triton X-100 and the radioactivity was measured using a liquid scintillation counter to confirm the linearity of the 3-OMG uptake capability. As a result, an uptake time of 20 seconds was set.
Next, the substrate concentration dependency of the 3-OMG uptake capability was examined. After washing the cells with the uptake buffer (1) heated to 37° C., 0.2 mL of the uptake buffer (1) containing 462 kBq/well of [^3H]3-OMG was added. Solutions containing 3-OMG at different concentrations were prepared by adding non-labeled 3-OMG to the uptake buffer (1) to make final concentrations of 0, 0.5, 1, 5, 10, 20, 30, and 50 mM. […] Next, the cells were solubilized overnight in 1 mL of PBS containing 1% Triton X-100 and the radioactivity was measured using a liquid scintillation counter.

A further series concerns the target T2, GLUT-1 transport carrier (Rattus norvegicus, UniProt P11167).
T2 construct: endogenous in cells; host or cells: TR-BBB1, TR-BBB5, TR-BBB6, TR-BBB11, TR-BBB13, immortalized rat brain capillary endothelial cells
T2 sequence (P11167 1-492): T1 sequence (P11167 1-492)
Nature of the series: 3-OMG uptake by TR-BBB cell lines (glucose transport capability). The class given is in vitro ADME.

Series [1] concerns TR-CSFB3 cells. Nature of the series: Inhibition of L-proline uptake of TR-CSFB3 cells by Na+-free (choline) buffer and ouabain. As to conditions: 30 minutes. The class given is cell-based, rat. How it is done:
The L-proline uptake into the isolated choroid plexus is dependent on Na^+. […] However, because the experiment must be carried out under Na^+-free conditions, all Na^+ in the uptake buffer (1) was replaced with coline. […] Both reactions were carried out for 30 minutes. It was confirmed that L-proline uptake was inhibited as much as 98% under Na^+-free conditions. It was confirmed that 56% of L-proline uptake was inhibited by 1 mM ouabain. As a result, the L-proline uptake of TR-CSFB3 cells was confirmed to be Na^+-dependent.

Series [2] concerns TR-CSFB3 cells.
Description: The concentration dependency of the resulting cells on the L-proline transport was examined to determine the L-proline transport capability.
After the uptake reaction for 30 minutes and washing three times with PBS, 1 mL of PBS containing 1% Triton X-100 was added and the mixture was allowed to stand overnight to solubilize the cells. The radioactivity was measured using a liquid scintillation counter (LS-6500 made by Beckmann Co.).
In the next series the test system is rabbit choroid plexus. The settings on record: read-out: Km value from rabbit choroid plexus; L-proline, Coben L. A. et al. (1972); cited from earlier work.

For 3-o-methyl-D-glucose [3-OMG], on GLUT-1 transporter (20 seconds uptake, 37° C., 0-50 mM 3-OMG), the “maximum velocity constant (Vmax) of 3-OMG uptake” value is 45 nmol/min/mg protein. The Km on GLUT-1 transporter (read-out: Michaelis constant (Km) of 3-OMG uptake, 20 seconds uptake, 37° C., 0-50 mM 3-OMG) is 5600 µM. Besides, the Initial uptake rate on GLUT-1 transport carrier (TR-BBB1 cells) was 8.12 ± 0.62 μ1/min/mg protein; at GLUT-1 transport carrier (TR-BBB5 cells) it was 10.1 ± 1.32 μ1/min/mg protein; at GLUT-1 transport carrier (TR-BBB6 cells), 7.07 ± 0.92 μ1/min/mg protein; at GLUT-1 transport carrier (TR-BBB11 cells), 10.2 ± 0.62 μ1/min/mg protein; on GLUT-1 transport carrier (TR-BBB13 cells), 8.96 ± 0.50 μ1/min/mg protein. The “initial uptake rate of [3H]3-OMG” value on GLUT-1 transport carrier (span over TR-BBB1, TR-BBB5, TR-BBB6, TR-BBB11 and TR-BBB13 cells) was 7.07-10.2 μl/min/mg protein.

With `O=C(O)[C@@H]1CCCN1` [L-proline], the “inhibition of L-proline uptake under Na+-free conditions” value in the series on TR-CSFB3 cells [1] (all Na+ in uptake buffer replaced with choline) turned out to be 98%. Moreover, in the series with TR-CSFB3 cells [2] (30 minutes uptake, 0.005-20 mM L-proline), the “Vmax of L-proline uptake” value is 2.4 nmol/min/mg protein. Moreover, the Km in the series with TR-CSFB3 cells [2] (read-out: Km of L-proline uptake, 30 minutes uptake, 0.005-20 mM L-proline) was 1500 µM; in the series with rabbit choroid plexus, 1100 µM.

In the case of `C[C@@H]1O[C@@H](O[C@H]2C[C@@H](O)[C@]3(CO)[C@H]4[C@H](O)C[C@]5(C)[C@@H](C6=CC(=O)OC6)CC[C@]5(O)[C@@H]4CC[C@]3(O)C2)[C@H](O)[C@H](O)[C@H]1O` [ouabain], 1000 µM produced 56% inhibition in the series on TR-CSFB3 cells [1] (Rattus norvegicus, 0.5 h, 1 mM ouabain).

As usually defined, the Km is the substrate concentration at which the rate is half of its maximum. As a reminder, the inhibition is the change of the read-out against control, counted positive when it falls. The low end stands for little suppression, the high end for strong suppression.
